The source of these data is patent US20180243465A1, “HEMOSTATIC MATERIAL” (BAXTER INTERNATIONAL INC., priority 2015, published 2018).

No end group written: not given here. PVA‑NB hydrogel particulates = not defined here

In data set [1] the test system is platelets. The data set can be described thus: FACS analysis of platelet activation (CD41/CD62p co-expression). The format is cell-based, human. As to the method:
The blood of two unmedicated and healthy donors was collected and stabilized by sodium citrate. […] Twenty microliter of TRAP6-C solution (14 mg mL^−1) and/or 20 μL of NaCl solution (0.9%) were added as the positive control and the negative control, respectively. The incubated mixture was mixed with 300 μL of 1% paraformaldehyde for 15 min at room temperature. After washing and centrifugation a double immuno-staining was performed using 20 μL of phycoerythrin (PE) labeled monoclonal antibody directed against CD41 and 20 μL of allophycocyanin (APC) labeled monoclonal antibody directed against CD62P. Isotype controls were incubated with mouse IgG antibodies conjugated with APC or PE dye, respectively (all antibodies were purchased from BD Biosciences, Heidelberg, Germany). After 30 min incubation at room temperature the activation state of the platelets was determined using fluorescence flow cytometry. Expression of the platelet activation marker CD62P and the constitutively present platelet marker CD41 were detected using a Beckmann Coulter Cytomics FC-500 equipped with Uniphase Argon ion laser, 488 nm, 20 mW output. Overall 100 000 platelets were measured per sample and analyzed with the Cytomics CXP software. The experiment was repeated twice.
We next utilized flow cytometry (FACS) to quantify the extent of platelet activation. Platelets can be distinguished from other blood cells by the constitutive expression of the surface antigen CD41, which recognizes the platelet membrane glycoprotein GpIIb which is non-covalently associated with GpIIIa (the integrin beta 3 chain) to form the GpIIb/IIIa complex. Importantly, the CD62p (P-selectin) membrane glycoprotein is exclusively expressed on activated platelets. The CD62p marker was used to identify the extent of activation in human platelets after incubation with the studied materials (PVA-TRAP6, TRAP6, PVA-NB, and NaCl).
For orientation: In flow cytometry, cells or beads pass a laser one at a time.

For another data set, the system named is whole blood. In words: Rotational thromboelastometry (ROTEM) of recalcified citrated whole blood. It is filed as cell-based, human. The note with it: for clotting time (CT) as % of the physiological CT: whole blood; for clotting time (CT) vs saline control / clot formation time (CFT) vs saline control: 1 mM; for clotting time (CT) vs saline control: FIG. 8A; for clot formation time (CFT) vs saline control: FIG. 8B. The text has this: ROTEM (TEM Innovation, Germany) was applied to monitor the interactions of platelet-activating polymers and whole blood over time. ROTEM system contains an oscillating sensor pin that is immersed in a temperature-controlled cuvette containing the blood sample. Four measurements can be performed in parallel in the same device. Generally, coagulation of the citrated blood sample is initiated by re-calcification. The formation kinetics of a fibrin clot could be monitored mechanically and calculated by an integrated computer to the typical curves and numerical parameters.
Blood was collected from three un-medicated and healthy donors using minimal stasis from an antecubital vein through a 21-gauge needle. After discarding the first 3 ml, blood was collected in 3.5 ml tubes (Vacuette; Greiner Bio-One) containing 0.3 ml buffered 3.2% sodium citrate. The samples were kept on a pre-warming stage at 37° C. for at least 10 min prior to analysis and were processed within 3 h. ROTEM analysis of the whole blood sample was initiated by recalcification with the addition of 20 μl of CaCl2 (star-TEM®, 200 mM). Polymer solutions and/or polymer suspensions were added directly to the cuvette immediately after recalcification of the citrated blood and mixed by gently pipetting up and down as previously reported.^[21] The final reaction volume per ROTEM cuvette was 370 μl, consisting of 300 μl citrated whole blood, 20 μl CaCl2 and 50 μl polymer solution or polymer suspension.
We next studied the hemostatic efficacy of PVA-TRAP6 in comparison with TRAP6 and PVA-NB using rotational thromboelastometry (ROTEM),^[21, 22] which is a clinical diagnostic tool allowing in situ characterization of viscoelastic properties of blood clot during coagulation. […] Clotting time (CT) refers to the latency until the clot reaches a firmness of 2 mm while maximum clot firmness (MCF) refers to the maximum amplitude of the curve, which indicates the absolute strength of the clot.

For data set [2], the system named is platelets. In words: Multiplate platelet aggregation assay in hirudinized whole blood. It is filed as cell-based, human. Particulars: for aggregation area: 0.1 mM TRAP6 equivalent, 6 min measurement. As to the method: The principle of Multiplate test is based on the fact that platelets become sticky upon activation, and thus prone to adhere and aggregate on the metal sensor wires in the Multiplate test cuvette. The sensor wires are made of highly conductive copper, which is silver-coated. As activated platelets adhere and aggregate on the sensor wires, the electrical resistance between the wires rises, which can be monitored in real time. For each measurement, 300 μL of saline and 300 μL of hirudinized whole blood was added sequentially to a Multiplate cuvette. After 3 min incubation at 37° C., 20 μL of sample solution was added and at the same time the program started to collect signals. The Multiplate device allows 4 measurements in parallel. Each measurement was performed for 6 min and in duplicate.
In order to quantify the extent of platelet activation, we utilized Multiplate assay to investigate the influence of PVA-TRAP6, TRAP6 and PVA-NB on platelet aggregation. The principle of this method is based on the fact that platelets become sticky upon activation, and thus prone to adhere and aggregate on the metal sensor wires in the Multiplate test cuvette. As activated platelets adhere and aggregate on the sensor wires, the electrical resistance between the wires rises, which can be continuously monitored. […] One key parameter of Multiplate assay is aggregation area (in Units), i.e. the area underneath the aggregation curve.

Data set [3] concerns platelets. The note with it: from reference [12]; cited from earlier work.

Procedure for C2C12 myoblasts: Cytotoxicities of PVA, PVA-NB and PVA-TRAP6 macromer solutions were evaluated via MTT assay. C2C12 cells were cultured in Dulbecco's Modified Eagles Medium (DMEM) supplemented with 5% fetal calf serum (FCS), 1% L-Glutamine, 1% Penicillin/Streptomycin (all from Sigma-Aldrich, Austria). Macromer solutions with three concentrations (5%, 1% and 0.1%) were prepared in DMEM culture medium. C2C12 cells were then seeded in a 96-well plate at a density of 5×10^3 cells per well in 200 μL of culture medium. After 24 h incubation (37° C., 5% CO2), 100 μL of the respective macromer solutions were added to the cells in triplicates. After 24 h incubation, cells were washed twice with sterile PBS before the addition of 100 μL thiazolyl blue tetrazolium bromide (MTT) working solution (5 mg/mL in PBS). After 1 h incubation, the liquid was discarded and 100 μl of DMSO was added to dissolve the formazan crystals. Finally, the absorbance was measured at 540 nm using a microplate reader.

In the case of “PVA-TRAP6-P: insoluble crosslinked PVA-NB hydrogel particulates surface-functionalized with TRAP6-Cys peptide (SFLLRNPNC(PVA‑NB hydrogel particulates); reading uncertain)”, the “platelet activation vs soluble TRAP6 control (FACS)” value in the data set with platelets [1] (particulates) is recorded as “comparable extent as soluble TRAP6 control”. Also, the “percentage of activated platelets (CD41+/CD62p+)” value in the data set on platelets [1] (particulates, 15 min incubation, whole blood) is listed as roughly 55%. The “clotting time (CT) as % of the physiological CT” value in the data set with whole blood (particulate suspension 10 wt % in saline) is reported as roughly 50%.
In the case of “PVA-TRAP6: water-soluble conjugate of cysteine-containing TRAP6 peptide (SFLLRNPNC) on PVA-norbornene backbone by thiol-ene photo-click conjugation (SFLLRNPNC(PVA‑norbornene 22 kDa))”, the “platelet activation (CD41/CD62P co-expression)” value in the data set with platelets [1] (1 mM, FIG. 9B) is on record as “very similar level as TRAP6 control”. For the same substance, the “CD41/CD62p co-expression (CD62p expression in CD41 positive cells)” value with platelets [1] (15 min incubation, 0.1 mM, soluble system) is given as roughly 80%. Besides, the “clotting time (CT)” value in the data set on whole blood (0.1 mM TRAP6 equivalent, compared with TRAP6 0.1 mM) is on record as “very comparable to that of TRAP6”. The “maximum clot firmness (MCF)” value with whole blood (0.1 mM, compared with TRAP6 control) is “relatively less than that of TRAP6 control”. Besides, in the data set with whole blood, the “clotting time (CT) vs saline control” value is “significantly shorten” and the “clot formation time (CFT) vs saline control” value is reported as “significantly shorten”. Besides, in the data set on whole blood (0.1% PVA-TRAP6 solution), the “clotting time (CT) as % of the physiological CT” value is roughly 45%. Also, the optimal hemostatic concentration with whole blood (peptide concentrations tested 0.01, 0.1, 1 mM, CT) came out at 0.1 mM. For the same substance, the “cytotoxicity (MTT assay)” value in the data set with C2C12 myoblasts was “nontoxic”. Besides, the platelet aggregation curve entry with platelets [2] (0.1 mM) is recorded as “comparable to that of TRAP6”. The aggregation area with platelets [2] was determined as 130 U. Further, the “total platelet aggregation area” value in the data set with platelets [2] (1 mM, FIG. 9A) is given as “comparable to that of TRAP6”.
Turning to SFLLRN [TRAP6, reference compound], in the data set with whole blood, the “clotting time (CT) vs saline control” value is “significant decrease” and the “clot formation time (CFT) vs saline control” value is recorded as “significant decrease”. Moreover, the “dose influence on CT” value with whole blood (peptide concentrations 0.01, 0.1, 1 mM) is on record as “no significant dose influences”. Besides, the “effective TRAP6-concentration for platelet activation” value in the data set with platelets [3] is 5 to 100 µM. For the same substance, the aggregation area in the data set on platelets [2] is given as 147 U.
With “PEG-TRAP6: PEG-10k-NHS reacted with the N-terminus of TRAP6, unreacted NHS groups blocked with glycine ({PEG 10 kDa}-SFLLRNPNC; also: unreacted NHS groups of PEG blocked with glycine) [reference compound]”, in the data set on whole blood, the “clotting time (CT) vs saline control” value is given as “this effect was lost” and the “clot formation time (CFT) vs saline control” value was “this effect was lost”.
